Source: patent publication US9074300B2 (priority 2001, dated 2015)

Columns and labels:
[1] = target: T1, GST (Schistosoma japonicum, UniProt P08515); details: bound complex with GST
[2] = target: cutinase (Fusarium vanettenii, UniProt P00590); assay type: biochemical, Fusarium solani pisi; details: read-out: Michaelis constant (KM)
Experimental: The release of PNP was followed using absorbance spectroscopy.
Spectrophotometric measurement was performed at room temperature using BECKMAN DU-640 spectrophotometer (BECKMAN COULTER, INC., Fullerton, Calif.).

[3] = target: T2, GST (Rattus norvegicus, UniProt P08010); details: corresponds to affinity of 100 μM
T2 sequence (P08010 2-218 limits assumed): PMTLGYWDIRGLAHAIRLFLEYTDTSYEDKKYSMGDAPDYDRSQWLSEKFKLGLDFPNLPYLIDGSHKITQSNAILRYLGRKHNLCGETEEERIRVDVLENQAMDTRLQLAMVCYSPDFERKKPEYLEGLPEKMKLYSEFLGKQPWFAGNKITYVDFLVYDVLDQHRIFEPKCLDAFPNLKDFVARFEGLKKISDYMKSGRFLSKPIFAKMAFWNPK
Source text: For example, glutathione-S-transferase (GST) is an enzyme which is commonly used as an affinity handle for the purification of recombinant proteins. The target protein is expressed and purified as a GST fusion and may then be treated with a protease to remove the GST domain (Smith and Johnson, 1988).

[4] = target: T2, GST; details: read-out: affinity of binding to GST; cited from earlier work
[5] = target: T1, GST; test: SPR immobilization of GST to self-assembled monolayer; assay type: binding; details: monolayer from 1:99 mixture of alkanethiol 13 and penta(ethylene glycol) alkanethiol; GST 100 μM, PBS pH 7.4

T1 sequence (P08515 2-218 limits assumed): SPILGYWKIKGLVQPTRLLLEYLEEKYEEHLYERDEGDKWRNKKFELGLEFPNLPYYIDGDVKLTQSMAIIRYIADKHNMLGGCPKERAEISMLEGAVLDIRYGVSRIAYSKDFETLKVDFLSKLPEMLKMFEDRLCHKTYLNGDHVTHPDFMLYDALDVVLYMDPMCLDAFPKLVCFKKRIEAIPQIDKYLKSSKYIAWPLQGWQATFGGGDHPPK
Chain of cutinase (P00590 17-230): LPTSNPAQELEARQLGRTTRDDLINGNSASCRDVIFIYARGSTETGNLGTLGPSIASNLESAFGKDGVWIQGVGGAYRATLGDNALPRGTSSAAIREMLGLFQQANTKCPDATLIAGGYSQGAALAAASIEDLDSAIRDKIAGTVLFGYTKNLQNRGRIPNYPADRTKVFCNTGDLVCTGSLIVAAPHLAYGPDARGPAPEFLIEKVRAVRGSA

## Glutathione-dichtoroquinone conjugate [formula (6)]
[1]
  first-order rate constant of irreversible cross-linking reaction: 0.11 ± 0.03 min⁻¹

## CCCC(=O)Oc1ccc([N+](=O)[O-])cc1 [4-nitrophenyl butyrate]
[2]
  Km: 1000 µM

## N[C@@H](CCC(=O)N[C@@H](CS)C(=O)NCC(=O)O)C(=O)O [glutathione]
[3]
  lifetime of the bound complex: about one
[4]
  Kd: ~100 µM

## Hydroquinone-glutathione-EG5-alkanethiol [compound 13]
[5]
  binding of GST to monolayer: this binding was irreversible
